In PMC6979384, “Characterization of the plant homeodomain (PHD) reader family for their histone tail interactions” (Epigenetics & Chromatin, 2020):

Experiments:
Test in all cases: Histone peptide microarray
Assay type in all cases: binding, human
AIRE (PP) = conditions: each array performed twice, total n = 4; for Array Heatmap signal (histone peptide microarray): GST-tagged AIRE (PP), sheet Array Heatmap
How it was run: (§1)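 GST-PHD reader, 0.5 μM, probed on 293-peptide histone array (single/combinatorial PTMs); optimized array protocol; signal = mean ± SD, n = 4.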

BAZ2B = conditions: each array performed twice, total n = 4; for Array Heatmap signal (histone peptide microarray): GST-tagged BAZ2B, sheet Array Heatmap
How it was run: as §1

BPTF (PB) = conditions: each array performed twice, total n = 4; for Array Heatmap signal (histone peptide microarray): GST-tagged BPTF (PB = PHD + Bromodomain), sheet Array Heatmap
How it was run: as §1

CHD4 (PPCC) = conditions: each array performed twice, total n = 4; for Array Heatmap signal (histone peptide microarray): GST-tagged CHD4 (PPCC = Dual PHD + Dual Chromodomain), sheet Array Heatmap
How it was run: as §1

CHD5 (PCC) = conditions: each array performed twice, total n = 4; for Array Heatmap signal (histone peptide microarray): GST-tagged CHD5 (PCC = PHD + Dual Chromodomain), sheet Array Heatmap
How it was run: as §1

CHD5 (PPCC) = conditions: each array performed twice, total n = 4; for Array Heatmap signal (histone peptide microarray): GST-tagged CHD5 (PPCC = Dual PHD + Dual Chromodomain), sheet Array Heatmap
How it was run: as §1

DIDO1 = conditions: each array performed twice, total n = 4; for Array Heatmap signal (histone peptide microarray): GST-tagged DIDO1, sheet Array Heatmap
How it was run: as §1

DPF2 (PPC2W2) = conditions: each array performed twice, total n = 4; for Array Heatmap signal (histone peptide microarray): GST-tagged DPF2 (PPC2W2 = Dual PHD + C2W2-type Zn-finger), sheet Array Heatmap
How it was run: as §1

ING1 = conditions: each array performed twice, total n = 4; for Array Heatmap signal (histone peptide microarray): GST-tagged ING1, sheet Array Heatmap
How it was run: as §1

ING2 = conditions: each array performed twice, total n = 4; for Array Heatmap signal (histone peptide microarray): GST-tagged ING2, sheet Array Heatmap
How it was run: as §1

ING3 = conditions: each array performed twice, total n = 4; for Array Heatmap signal (histone peptide microarray): GST-tagged ING3, sheet Array Heatmap
How it was run: as §1

ING4 = conditions: each array performed twice, total n = 4; for Array Heatmap signal (histone peptide microarray): GST-tagged ING4, sheet Array Heatmap
How it was run: as §1

ING5 = conditions: each array performed twice, total n = 4; for Array Heatmap signal (histone peptide microarray): GST-tagged ING5, sheet Array Heatmap
How it was run: as §1

KDM4C (TTP) = conditions: each array performed twice, total n = 4; for Array Heatmap signal (histone peptide microarray): GST-tagged KDM4C (TTP = Tandem Tudor domain + PHD), sheet Array Heatmap
How it was run: as §1

KDM5A (1) = conditions: each array performed twice, total n = 4; for Array Heatmap signal (histone peptide microarray): GST-tagged KDM5A (1), sheet Array Heatmap
How it was run: as §1

KDM5A (3) = conditions: each array performed twice, total n = 4; for Array Heatmap signal (histone peptide microarray): GST-tagged KDM5A (3), sheet Array Heatmap
How it was run: as §1

KDM5B (1) = conditions: each array performed twice, total n = 4; for Array Heatmap signal (histone peptide microarray): GST-tagged KDM5B (1), sheet Array Heatmap
How it was run: as §1

KDM5B (3) = conditions: each array performed twice, total n = 4; for Array Heatmap signal (histone peptide microarray): GST-tagged KDM5B (3), sheet Array Heatmap
How it was run: as §1

KDM7A = conditions: each array performed twice, total n = 4; for Array Heatmap signal (histone peptide microarray): GST-tagged KDM7A, sheet Array Heatmap
How it was run: as §1

MLL5 = conditions: each array performed twice, total n = 4; for Array Heatmap signal (histone peptide microarray): GST-tagged MLL5, sheet Array Heatmap
How it was run: as §1

MORC3 (CW) = conditions: each array performed twice, total n = 4; for Array Heatmap signal (histone peptide microarray): GST-tagged MORC3 (CW = CW-type Zn-finger), sheet Array Heatmap
How it was run: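 GST-tagged PHD readers, 0.5 μM, probed on a microarray of 293 synthetic histone peptides carrying single or combinatorial PTMs (optimized Petell protocol). Signals are averaged over 4 replicates and expressed as relative binding.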

PHF13 = conditions: each array performed twice, total n = 4; for Array Heatmap signal (histone peptide microarray): GST-tagged PHF13, sheet Array Heatmap
How it was run: as §1

PHF21A = conditions: each array performed twice, total n = 4; for Array Heatmap signal (histone peptide microarray): GST-tagged PHF21A, sheet Array Heatmap
How it was run: as §1

PHF23 = conditions: each array performed twice, total n = 4; for Array Heatmap signal (histone peptide microarray): GST-tagged PHF23, sheet Array Heatmap
How it was run: as §1

PHF2 = conditions: each array performed twice, total n = 4; for Array Heatmap signal (histone peptide microarray): GST-tagged PHF2, sheet Array Heatmap
How it was run: as §1

PHF8 = conditions: each array performed twice, total n = 4; for Array Heatmap signal (histone peptide microarray): GST-tagged PHF8, sheet Array Heatmap
How it was run: as §1

PHRF1 (RP) = conditions: each array performed twice, total n = 4; for Array Heatmap signal (histone peptide microarray): GST-tagged PHRF1 (RP), sheet Array Heatmap
How it was run: as §1

RAG2 = conditions: each array performed twice, total n = 4; for Array Heatmap signal (histone peptide microarray): GST-tagged RAG2, sheet Array Heatmap
How it was run: as §1

SP140L = conditions: each array performed twice, total n = 4; for Array Heatmap signal (histone peptide microarray): GST-tagged SP140L, sheet Array Heatmap
How it was run: as §1

TAF3 = conditions: each array performed twice, total n = 4; for Array Heatmap signal (histone peptide microarray): GST-tagged TAF3, sheet Array Heatmap
How it was run: as §1

TRIM66 (PB) = conditions: each array performed twice, total n = 4; for Array Heatmap signal (histone peptide microarray): GST-tagged TRIM66 (PB = PHD + Bromodomain), sheet Array Heatmap
How it was run: as §1

## H3K4me3 (1-11): H3 1-11
AIRE (PP); AIRE (PP), sheet "Array Heatmap"
  Array Heatmap value (peptide array signal): 0.5119
BAZ2B; BAZ2B, sheet "Array Heatmap"
  Array Heatmap value (peptide array signal): 0.4805
BPTF (PB); BPTF (PB), sheet "Array Heatmap"
  Array Heatmap value (peptide array signal): 0.3697
CHD4 (PPCC); CHD4 (PPCC), sheet "Array Heatmap"
  Array Heatmap value (peptide array signal): 0.5943
CHD5 (PCC); CHD5 (PCC), sheet "Array Heatmap"
  Array Heatmap value (peptide array signal): 0.8101
CHD5 (PPCC); CHD5 (PPCC), sheet "Array Heatmap"
  Array Heatmap value (peptide array signal): 0.5701
DIDO1; DIDO1, sheet "Array Heatmap"
  Array Heatmap value (peptide array signal): 0.7285
DPF2 (PPC2W2); DPF2 (PPC2W2), sheet "Array Heatmap"
  Array Heatmap value (peptide array signal): 0.6949
ING1; ING1, sheet "Array Heatmap"
  Array Heatmap value (peptide array signal): 0.5841
ING2; ING2, sheet "Array Heatmap"
  Array Heatmap value (peptide array signal): 0.6411
ING3; ING3, sheet "Array Heatmap"
  Array Heatmap value (peptide array signal): 0.5106
ING4; ING4, sheet "Array Heatmap"
  Array Heatmap value (peptide array signal): 0.465
ING5; ING5, sheet "Array Heatmap"
  Array Heatmap value (peptide array signal): 0.3839
KDM4C (TTP); KDM4C (TTP), sheet "Array Heatmap"
  Array Heatmap value (peptide array signal): 0.5306
KDM5A (1); KDM5A (1), sheet "Array Heatmap"
  Array Heatmap value (peptide array signal): 0.5087
KDM5A (3); KDM5A (3), sheet "Array Heatmap"
  Array Heatmap value (peptide array signal): 0.6017
KDM5B (1); KDM5B (1), sheet "Array Heatmap"
  Array Heatmap value (peptide array signal): 0.6584
KDM5B (3); KDM5B (3), sheet "Array Heatmap"
  Array Heatmap value (peptide array signal): 0.5281
KDM7A; KDM7A, sheet "Array Heatmap"
  Array Heatmap value (peptide array signal): 0.4006
MLL5; MLL5, sheet "Array Heatmap"
  Array Heatmap value (peptide array signal): 0.6217
MORC3 (CW); MORC3 (CW), sheet "Array Heatmap"
  Array Heatmap value (peptide array signal): 0.5155
PHF13; PHF13, sheet "Array Heatmap"
  Array Heatmap value (peptide array signal): 0.6221
PHF21A; PHF21A, sheet "Array Heatmap"
  Array Heatmap value (peptide array signal): 0.5172
PHF23; PHF23, sheet "Array Heatmap"
  Array Heatmap value (peptide array signal): 0.5829
PHF2; PHF2, sheet "Array Heatmap"
  Array Heatmap value (peptide array signal): 0.5693
PHF8; PHF8, sheet "Array Heatmap"
  Array Heatmap value (peptide array signal): 0.4899
PHRF1 (RP); PHRF1 (RP), sheet "Array Heatmap"
  Array Heatmap value (peptide array signal): 0.4768
RAG2; RAG2, sheet "Array Heatmap"
  Array Heatmap value (peptide array signal): 0.3044
SP140L; SP140L, sheet "Array Heatmap"
  Array Heatmap value (peptide array signal): 0.3833
TAF3; TAF3, sheet "Array Heatmap"
  Array Heatmap value (peptide array signal): 0.3193
TRIM66 (PB); TRIM66 (PB), sheet "Array Heatmap"
  Array Heatmap value (peptide array signal): 0.5622

## H3K4me3 + K9ac + K14ac + K18ac: H3 1-20
AIRE (PP)
  Array Heatmap signal (histone peptide microarray): 0.4865
BAZ2B
  Array Heatmap signal (histone peptide microarray): 0.6196
BPTF (PB)
  Array Heatmap signal (histone peptide microarray): 0.7619
CHD4 (PPCC)
  Array Heatmap signal (histone peptide microarray): 0.5745
CHD5 (PCC)
  Array Heatmap signal (histone peptide microarray): 0.8618
CHD5 (PPCC)
  Array Heatmap signal (histone peptide microarray): 0.5931
DIDO1
  Array Heatmap signal (histone peptide microarray): 0.9126
DPF2 (PPC2W2)
  Array Heatmap signal (histone peptide microarray): 0.7652
ING1
  Array Heatmap signal (histone peptide microarray): 0.7787
ING2
  Array Heatmap signal (histone peptide microarray): 0.8772
ING3
  Array Heatmap signal (histone peptide microarray): 0.8559
ING4
  Array Heatmap signal (histone peptide microarray): 0.625
ING5
  Array Heatmap signal (histone peptide microarray): 0.4716
KDM4C (TTP)
  Array Heatmap signal (histone peptide microarray): 0.6463
KDM5A (1)
  Array Heatmap signal (histone peptide microarray): 0.4983
KDM5A (3)
  Array Heatmap signal (histone peptide microarray): 0.9909
KDM5B (1)
  Array Heatmap signal (histone peptide microarray): 0.7481
KDM5B (3)
  Array Heatmap signal (histone peptide microarray): 0.8339
KDM7A
  Array Heatmap signal (histone peptide microarray): 0.5567
MLL5
  Array Heatmap signal (histone peptide microarray): 0.936
MORC3 (CW)
  Array Heatmap signal (histone peptide microarray): 1
PHF13
  Array Heatmap signal (histone peptide microarray): 0.7829
PHF21A
  Array Heatmap signal (histone peptide microarray): 0.4925
PHF23
  Array Heatmap signal (histone peptide microarray): 0.8373
PHF2
  Array Heatmap signal (histone peptide microarray): 0.7873
PHF8
  Array Heatmap signal (histone peptide microarray): 0.7502
PHRF1 (RP)
  Array Heatmap signal (histone peptide microarray): 0.5895
RAG2
  Array Heatmap signal (histone peptide microarray): 0.8746
SP140L
  Array Heatmap signal (histone peptide microarray): 0.3627
TAF3
  Array Heatmap signal (histone peptide microarray): 0.6574
TRIM66 (PB)
  Array Heatmap signal (histone peptide microarray): 0.6004

## H3K4me3 + K9ac + K18ac: H3 1-20
AIRE (PP)
  Array Heatmap signal (histone peptide microarray): 0.5297
BAZ2B
  Array Heatmap signal (histone peptide microarray): 0.5371
BPTF (PB)
  Array Heatmap signal (histone peptide microarray): 0.7655
CHD4 (PPCC)
  Array Heatmap signal (histone peptide microarray): 0.5646
CHD5 (PCC)
  Array Heatmap signal (histone peptide microarray): 0.8455
CHD5 (PPCC)
  Array Heatmap signal (histone peptide microarray): 0.6046
DIDO1
  Array Heatmap signal (histone peptide microarray): 0.9071
DPF2 (PPC2W2)
  Array Heatmap signal (histone peptide microarray): 0.728
ING1
  Array Heatmap signal (histone peptide microarray): 0.8615
ING2
  Array Heatmap signal (histone peptide microarray): 0.8776
ING3
  Array Heatmap signal (histone peptide microarray): 0.8253
ING4
  Array Heatmap signal (histone peptide microarray): 0.6909
ING5
  Array Heatmap signal (histone peptide microarray): 0.4905
KDM4C (TTP)
  Array Heatmap signal (histone peptide microarray): 0.7748
KDM5A (1)
  Array Heatmap signal (histone peptide microarray): 0.5009
KDM5A (3)
  Array Heatmap signal (histone peptide microarray): 0.919
KDM5B (1)
  Array Heatmap signal (histone peptide microarray): 0.7108
KDM5B (3)
  Array Heatmap signal (histone peptide microarray): 0.9067
KDM7A
  Array Heatmap signal (histone peptide microarray): 1
MLL5
  Array Heatmap signal (histone peptide microarray): 0.9085
MORC3 (CW)
  Array Heatmap signal (histone peptide microarray): 0.8949
PHF13
  Array Heatmap signal (histone peptide microarray): 0.8179
PHF21A
  Array Heatmap signal (histone peptide microarray): 0.4825
PHF23
  Array Heatmap signal (histone peptide microarray): 0.8424
PHF2
  Array Heatmap signal (histone peptide microarray): 0.7127
PHF8
  Array Heatmap signal (histone peptide microarray): 1
PHRF1 (RP)
  Array Heatmap signal (histone peptide microarray): 0.6174
RAG2
  Array Heatmap signal (histone peptide microarray): 0.8902
SP140L
  Array Heatmap signal (histone peptide microarray): 0.3543
TAF3
  Array Heatmap signal (histone peptide microarray): 0.7825
TRIM66 (PB)
  Array Heatmap signal (histone peptide microarray): 0.7372
